Results taken from patent US11274101B2, “Heterocyclic compound” (Takeda Pharmaceutical Company Limited, priority 2017, dated 2022).

Biological target: T1, His-hMAGL (recombinant polyhistidine tagged human MAGL protein) (Homo sapiens, UniProt Q99685)
T1 construct: made in house; host or cells: E. coli BL21(DE3)
T1 sequence (Q99685 1-303): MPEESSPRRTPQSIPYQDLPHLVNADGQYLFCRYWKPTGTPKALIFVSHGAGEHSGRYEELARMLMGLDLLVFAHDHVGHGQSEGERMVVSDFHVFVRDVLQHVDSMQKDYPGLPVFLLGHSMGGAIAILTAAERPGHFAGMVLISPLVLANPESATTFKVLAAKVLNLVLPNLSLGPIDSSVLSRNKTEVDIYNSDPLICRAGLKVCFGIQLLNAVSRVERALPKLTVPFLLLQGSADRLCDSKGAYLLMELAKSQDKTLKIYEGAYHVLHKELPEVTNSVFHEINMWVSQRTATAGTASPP
Assay: Measurement of MAGL inhibitory activity (arachidonic acid production from 2-arachidonylglycerol, RapidFire-mass spectrometry)
Format: biochemical
Settings: test compound 10 μM; MAGL inhibitory rate
Protocol: The His-hMAGL obtained above was diluted with enzyme reaction buffer (10 mM Tris-HCl, pH 7.5, 1 mM EDTA, 0.025 (w/v) % Triton X-100, 0.01% Bovine serum albumin) to a concentration of 7.5 ng/mL. To each well of a 384 well assay plate (Greiner 781280) was added a solution (5 μL) of a test compound dissolved in dimethyl sulfoxide (DMSO), which was diluted with the above-mentioned enzyme reaction buffer, then His-hMAGL solution (5 μL) diluted to a concentration of 7.5 ng/mL was added, and the mixture was incubated at room temperature for 60 min. Thereafter, to each well was added 5 μL of 150 μM 2-arachidonylglycerol (Tocris Bioscience), and the mixture was incubated at room temperature for 10 min. Then, 10 μL of 2% formic acid (Wako Pure Chemical Industries, Ltd.) was added to stop the reaction. Furthermore, acetonitrile (50 μL) containing 3 μM arachidonic acid-d8 (Cayman Chemical Company) was added and the mixture was stirred.
The amount of arachidonic acid in the obtained enzyme reaction mixture was calculated by measuring by RapidFire-mass spectrometry and correcting by the amount of arachidonic acid-d8. High Throughput online solid phase extraction was performed using RapidFire 300™ system (Agilent Technologies, Inc.). Samples were loaded on SPE C4 cartridge (Agilent Technologies, Inc.) and desalted with 0.2 (v/v) % acetic acid (Wako Pure Chemical Industries, Ltd.) in ultrapure water/acetonitrile (70/30, v/v) at a flow rate of 1.5 mL/min, eluted at a flow rate of 0.5 mL/min with 0.2 (v/v) % acetic acid dissolved in acetonitrile/ultrapure water (90/10, v/v), and injected into the mass spectrometry part. The injection needle was washed with ultrapure water (500 millisecond) and acetonitrile (500 millisecond) to minimize carry-over. The suction time (injection loop 5 μL), load/cleansing time, elution time and re-equilibration time were adjusted to 300, 3000, 4250 and 1000 milliseconds, respectively, and the total cycle time was adjusted to about 10.0 seconds. The RapidFire300 system was controlled by RapidFire UI software version 3.6 (Agilent Technologies, Inc.).
The mass spectrometry of the resultant product was performed using API4000™ triple quadrupole mass spectrometer (AB SCIEX) equipped with an electrospray ion sauce (TurboIon Spray™) in a negative selected reaction monitoring (SRM) mode. The conditions of SRM are shown below. The parameters of the instrument were optimized as follows: capillary temperature 600° C., ion spray voltage −4.5 kV, collision gas 8, curtain gas 15 psi, ion source gas 1 60 psi, ion source gas 2 60 psi. The mass spectrometer was controlled by Analyst™ software version 1.5.1 (AB SCIEX). The peak area integration was analyzed using RapidFire integrator software version 3.6 (Agilent Technologies, Inc.).
MAGL inhibitory rate (%) was calculated according to the following calculation formula. (1-(arachidonic acid production amount of test compound addition group−arachidonic acid production amount of enzyme-free group)+(arachidonic acid production amount of test compound-free group−arachidonic acid production amount of enzyme-free group))×100

Row | inhibition at 10 µM [%] | Compound
1 | 103 | O=C1NC2(CO1)CN(C(=O)O[C@H]1C[C@H](COc3ccc(C(F)(F)F)cc3F)C1)C2 [Example 22, trans-3-((2-fluoro-4-(trifluoromethyl)phenoxy)methyl)cyclobutyl 6-oxo-7-oxa-2,5-diazaspiro[3.4]octane-2-carboxylate]
2 | 101 | O=C1NC2(CO1)CN(C(=O)O[C@H]1C[C@@H](OCc3ccc(F)c(F)c3F)C1)C2 [Example 6, cis-3-((2,3,4-trifluorobenzyl)oxy)cyclobutyl 6-oxo-7-oxa-2,5-diazaspiro[3.4]octane-2-carboxylate]
3 | 100 | O=C1NC2(CO1)CN(C(=O)O[C@H]1C[C@@H](COCc3cc(F)c(F)cc3F)C1)C2 [Example 32, cis-3-(((2,4,5-trifluorobenzyl)oxy)methyl)cyclobutyl 6-oxo-7-oxa-2,5-diazaspiro [3.4]octane-2-carboxylate]
4 | 100 | O=C1NC2(CO1)CN(C(=O)OC[C@H]1C[C@@H](Oc3c(F)cc(F)cc3F)C1)C2 [Example 23, (cis-3-(2,4,6-trifluorophenoxy)cyclobutyl)methyl 6-oxo-7-oxa-2,5-diazaspiro[3.4]octane-2-carboxylate]
5 | 93 | C[C@]1(OC(=O)N2CC3(COC(=O)N3)C2)C[C@@H](OCc2ccccc2)C1 [Example 58, cis-3-(benzyloxy)-1-methylcyclobutyl 6-oxo-7-oxa-2,5-diazaspiro[3.4]octane-2-carboxylate]
6 | 101 | O=C1NC2(CO1)CN(C(=O)O[C@H]1C[C@@H](OCc3ccccc3)C1)C2 [Example 2, cis-3-(benzyloxy)cyclobutyl 6-oxo-7-oxa-2,5-diazaspiro[3.4]octane-2-carboxylate]
7 | 100 | O=C1NC2(CO1)CN(C(=O)O[C@H]1C[C@@H](Oc3ccc(C(F)(F)F)cc3F)C1)C2 [Example 1, cis-3-(2-fluoro-4-(trifluoromethyl)phenoxy)cyclobutyl 6-oxo-7-oxa-2,5-diazaspiro[3.4]octane-2-carboxylate]
8 | 100 | O=C1NC2(CCN(C(=O)O[C@H]3C[C@@H](COc4ccc(F)c(F)c4F)C3)C2)CO1 (stereo partly drawn) [Example 35, cis-3-((2,3,4-trifluorophenoxy)methyl)cyclobutyl 2-oxo-3-oxa-1,7-diazaspiro[4.4]nonane-7-carboxylate]
9 | 98 | Cc1ccc(O[C@H]2C[C@@H](OC(=O)N3CC4(COC(=O)N4)C3)C2)cc1F [Example 45, cis-3-(3-fluoro-4-methylphenoxy)cyclobutyl 6-oxo-7-oxa-2,5-diazaspiro[3.4]octane-2-carboxylate]
10 | 100 | Cc1cc(COC[C@H]2C[C@@H](OC(=O)N3CC4(COC(=O)N4)C3)C2)ccc1Cl [Example 29, cis-3-(((4-chloro-3-methylbenzyl)oxy)methyl)cyclobutyl 6-oxo-7-oxa-2,5-diazaspiro [3.4]octane-2-carboxylate]
11 | 101 | O=C1NC2(CO1)CN(C(=O)O[C@H]1C[C@@H](COc3cc(F)c(F)cc3F)C1)C2 [Example 17, cis-3-((2,4,5-trifluorophenoxy)methyl)cyclobutyl 6-oxo-7-oxa-2,5-diazaspiro[3.4]octane-2-carboxylate]
12 | 100 | O=C1NC2(CO1)CN(C(=O)O[C@H]1C[C@@H](OCc3cc(F)c(F)cc3F)C1)C2 [Example 7, cis-3-((2,4,5-trifluorobenzyl)oxy)cyclobutyl 6-oxo-7-oxa-2,5-diazaspiro[3.4]octane-2-carboxylate]
13 | 100 | O=C1NC2(CO1)CN(C(=O)O[C@H]1C[C@@H](COCc3ccc(F)cc3Cl)C1)C2 [Example 30, cis-3-(((2-chloro-4-fluorobenzyl)oxy)methyl)cyclobutyl 6-oxo-7-oxa-2,5-diazaspiro[3.4]octane-2-carboxylate]
14 | 99 | Cc1cc(O[C@H]2C[C@@H](OC(=O)N3CC4(COC(=O)N4)C3)C2)ccc1F [Example 50, cis-3-(4-fluoro-3-methylphenoxy)cyclobutyl 6-oxo-7-oxa-2,5-diazaspiro[3.4]octane-2-carboxylate]
15 | 101 | Cc1ccc(O[C@H]2C[C@@H](OC(=O)N3CC4(COC(=O)N4)C3)C2)cc1 [Example 53, cis-3-(4-methylphenoxy)cyclobutyl 6-oxo-7-oxa-2,5-diazaspiro[3.4]octane-2-carboxylate]
16 | 99 | O=C1NC2(CO1)CN(C(=O)O[C@H]1C[C@H](OCc3ccccc3)C1)C2 [Example 42, trans-3-(benzyloxy)cyclobutyl 6-oxo-7-oxa-2,5-diazaspiro[3.4]octane-2-carboxylate]
17 | 103 | O=C1NC2(CO1)CN(C(=O)OC[C@H]1C[C@@H](Oc3ccc(C(F)(F)F)cc3F)C1)C2 [Example 24, (cis-3-(2-fluoro-4-(trifluoromethyl)phenoxy)cyclobutyl)methyl 6-oxo-7-oxa-2,5-diazaspiro[3.4]octane-2-carboxylate]
18 | 100 | O=C1NC2(CO1)CN(C(=O)O[C@H]1C[C@@H](OCc3ccc(F)cc3F)C1)C2 [Example 40, cis-3-((2,4-difluorobenzyl)oxy)cyclobutyl 6-oxo-7-oxa-2,5-diazaspiro[3.4]octane-2-carboxylate]
19 | 100 | O=C1NC2(CO1)CN(C(=O)O[C@H]1C[C@@H](Oc3ccc(C(F)(F)F)cc3)C1)C2 [Example 48, cis-3-(4-(trifluoromethyl)phenoxy)cyclobutyl 6-oxo-7-oxa-2,5-diazaspiro[3.4]octane-2-carboxylate]
20 | 100 | O=C1NC2(CO1)CN(C(=O)O[C@H]1C[C@@H](OCc3c(F)cc(F)cc3F)C1)C2 [Example 8, cis-3-((2,4,6-trifluorobenzyl)oxy)cyclobutyl 6-oxo-7-oxa-2,5-diazaspiro[3.4]octane-2-carboxylate]
